In ChEMBL document CHEMBL4373715, “Discovery and Biological Evaluations of Halogenated 2,4-Diphenyl Indeno[1,2-b]pyridinol Derivatives as Potent Topoisomerase IIα-Targeted Chemotherapeutic Agents for Breast Cancer” (J Med Chem, 2019) one finds inhibition and IC50 data, which are given here for 28 compounds.

For assay [1], the target named is T1, DNA topoisomerase 1 (Homo sapiens) (UniProt P11387).
T1 sequence (whole entry): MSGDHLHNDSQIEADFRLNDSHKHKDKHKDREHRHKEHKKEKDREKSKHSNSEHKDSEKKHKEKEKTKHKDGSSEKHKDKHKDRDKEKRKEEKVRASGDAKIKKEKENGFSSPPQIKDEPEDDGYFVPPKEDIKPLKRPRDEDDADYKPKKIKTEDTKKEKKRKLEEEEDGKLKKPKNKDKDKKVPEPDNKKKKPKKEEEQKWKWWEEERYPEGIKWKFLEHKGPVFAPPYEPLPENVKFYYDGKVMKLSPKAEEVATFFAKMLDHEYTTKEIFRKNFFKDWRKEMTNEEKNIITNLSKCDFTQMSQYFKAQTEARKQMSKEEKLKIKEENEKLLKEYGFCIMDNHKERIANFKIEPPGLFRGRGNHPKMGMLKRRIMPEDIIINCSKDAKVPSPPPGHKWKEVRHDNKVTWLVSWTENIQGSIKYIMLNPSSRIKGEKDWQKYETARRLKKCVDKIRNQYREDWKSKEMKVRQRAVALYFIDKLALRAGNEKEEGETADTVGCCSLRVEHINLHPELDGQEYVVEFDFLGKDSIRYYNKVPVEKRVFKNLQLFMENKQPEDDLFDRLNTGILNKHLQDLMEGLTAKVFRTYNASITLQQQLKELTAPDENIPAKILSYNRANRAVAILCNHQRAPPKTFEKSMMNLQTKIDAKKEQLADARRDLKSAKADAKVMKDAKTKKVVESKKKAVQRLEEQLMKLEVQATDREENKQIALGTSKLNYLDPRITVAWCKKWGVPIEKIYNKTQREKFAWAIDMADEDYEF
Put plainly: Inhibition of recombinant human topoisomerase 1-mediated relaxation of supercoiled pBR322 DNA at 100 uM measured after 30 mins by ethidium bromide staining based agarose gel electrophoresis relative to control.

The subject of a further assay is HCT-15. As to the kind of experiment: Antiproliferative activity against human HCT15 cells measured after 72 hrs by EZ-Cytox assay. To be noted: HCT-15, 72 h. The assay is classed as functional, cell-based.
Assay [2] concerns the target DNA topoisomerase 2-alpha (Homo sapiens) (UniProt P11388). As to the kind of experiment: Inhibition of recombinant human topoisomerase 2alpha-mediated relaxation of supercoiled pBR322 DNA at 100 uM measured after 30 mins by ethidium bromide staining based agarose gel electrophoresis relative to control.
Another assay concerns DU-145. As to the kind of experiment: Antiproliferative activity against human DU145 cells measured after 72 hrs by EZ-Cytox assay. The assay is classed as functional, cell-based. The following applies: DU-145, 72 h.
The test system of the next assay is T47D. Put plainly: Antiproliferative activity against human T47D cells measured after 72 hrs by EZ-Cytox assay. The assay is classed as functional, cell-based.
A further assay concerns HeLa. Put plainly: Antiproliferative activity against human HeLa cells measured after 72 hrs by EZ-Cytox assay. The assay is classed as functional, cell-based.

A value given as a limit tells only on which side of the number the result lay.

Sequence of DNA topoisomerase 2-alpha (Homo sapiens) (P11388 whole entry): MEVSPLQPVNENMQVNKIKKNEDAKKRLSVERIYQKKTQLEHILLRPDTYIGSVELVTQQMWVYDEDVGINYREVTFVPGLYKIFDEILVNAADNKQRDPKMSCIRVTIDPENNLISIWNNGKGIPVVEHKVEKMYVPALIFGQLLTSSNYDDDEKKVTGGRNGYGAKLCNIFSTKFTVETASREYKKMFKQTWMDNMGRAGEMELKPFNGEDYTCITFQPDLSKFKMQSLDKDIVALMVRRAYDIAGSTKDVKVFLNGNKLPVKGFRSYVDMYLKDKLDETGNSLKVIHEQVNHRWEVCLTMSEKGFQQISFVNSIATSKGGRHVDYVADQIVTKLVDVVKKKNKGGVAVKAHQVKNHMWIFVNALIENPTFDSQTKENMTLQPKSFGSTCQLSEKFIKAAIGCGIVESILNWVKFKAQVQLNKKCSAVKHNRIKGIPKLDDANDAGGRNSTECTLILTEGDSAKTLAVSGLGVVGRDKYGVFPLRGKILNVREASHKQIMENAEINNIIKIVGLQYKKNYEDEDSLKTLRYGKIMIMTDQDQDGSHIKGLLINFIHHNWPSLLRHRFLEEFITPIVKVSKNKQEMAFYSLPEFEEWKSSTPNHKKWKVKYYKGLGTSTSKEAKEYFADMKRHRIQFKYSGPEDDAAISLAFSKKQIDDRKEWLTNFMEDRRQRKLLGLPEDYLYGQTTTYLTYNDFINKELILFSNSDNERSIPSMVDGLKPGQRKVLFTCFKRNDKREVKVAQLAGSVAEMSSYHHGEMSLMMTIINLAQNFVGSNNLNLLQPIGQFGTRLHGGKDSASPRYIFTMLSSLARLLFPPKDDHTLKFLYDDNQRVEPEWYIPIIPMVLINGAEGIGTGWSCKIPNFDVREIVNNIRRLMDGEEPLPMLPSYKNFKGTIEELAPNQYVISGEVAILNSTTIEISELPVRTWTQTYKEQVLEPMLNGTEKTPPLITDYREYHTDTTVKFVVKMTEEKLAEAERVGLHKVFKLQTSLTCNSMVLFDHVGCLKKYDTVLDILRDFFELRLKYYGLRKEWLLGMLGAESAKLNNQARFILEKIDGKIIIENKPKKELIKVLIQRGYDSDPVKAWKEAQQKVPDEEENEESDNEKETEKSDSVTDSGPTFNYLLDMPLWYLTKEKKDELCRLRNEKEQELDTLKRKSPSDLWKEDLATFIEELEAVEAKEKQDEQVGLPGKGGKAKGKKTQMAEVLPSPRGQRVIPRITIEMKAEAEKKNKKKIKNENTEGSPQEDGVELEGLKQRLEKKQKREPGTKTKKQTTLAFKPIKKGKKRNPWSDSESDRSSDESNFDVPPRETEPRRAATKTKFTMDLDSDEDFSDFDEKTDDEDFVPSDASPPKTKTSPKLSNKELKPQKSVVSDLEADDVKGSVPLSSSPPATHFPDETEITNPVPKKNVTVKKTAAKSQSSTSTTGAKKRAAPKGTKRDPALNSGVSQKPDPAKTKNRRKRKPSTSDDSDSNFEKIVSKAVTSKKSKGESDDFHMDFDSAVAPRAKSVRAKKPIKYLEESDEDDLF

What is called inhibition is the percentage by which the read-out fell short of the control. As a reminder, the IC50 is the point on the concentration scale where inhibition reaches its midpoint. With `Oc1cccc(-c2cc(-c3ccccc3F)nc3c2Cc2ccc(O)cc2-3)c1`, the inhibition came out at 16.3% in assay [1] and 28.1% in assay [2]. For the same compound, the IC50 turned out to be 2.96 µM with HCT-15, 0.4 µM in the assay on DU-145, 2.97 µM in the assay with T47D and 3.74 µM in the assay with HeLa.

For the compound `Oc1ccc2c(c1)Cc1c(-c3ccccc3O)cc(-c3cccc(F)c3)nc1-2`, the inhibition in assay [1] was 0%; in assay [2], 28%. Moreover, the IC50 came to 4.23 µM in the assay with HCT-15, 3.13 µM with DU-145, 0.86 µM in the assay on T47D and 2.43 µM with HeLa.

`Oc1cccc(-c2cc(-c3ccccc3F)nc3c2Cc2c(O)cccc2-3)c1`: the inhibition came out at 9.7% in assay [1] and 22.4% in assay [2]. The IC50 is 4.98 µM with HCT-15, 2.03 µM in the assay on DU-145, 2.71 µM in the assay with T47D and 6.75 µM with HeLa.

In the case of `Oc1ccc2c(c1)Cc1c(-c3ccccc3O)cc(-c3ccccc3F)nc1-2`, the inhibition worked out at 0% in assay [1] and 13.4% in assay [2]. In addition, the IC50 with HCT-15 stood at 3.37 µM; with DU-145, 3.82 µM; with T47D, 0.7 µM; in the assay with HeLa it was 4.94 µM.

In the case of `Oc1cccc(-c2cc(-c3ccc(F)cc3)nc3c2Cc2cccc(O)c2-3)c1`, the figures for the inhibition in assay [1] and in assay [2] were 2.3% and 27.3%, respectively. Further, the IC50 worked out at 4.04 µM with HCT-15, 3.3 µM in the assay on DU-145, 2.24 µM in the assay on T47D and 8.81 µM with HeLa.

`Oc1cccc(-c2cc(-c3cccc(F)c3)nc3c2Cc2cccc(O)c2-3)c1`: the inhibition worked out at 14% in assay [1] and 17.8% in assay [2]. The IC50 was over 50 µM in the assay on HCT-15, 0.94 µM with DU-145, 1.16 µM with T47D and 15 µM in the assay with HeLa.

On to `Oc1cccc(-c2cc(-c3ccccc3)nc3c2Cc2cccc(O)c2-3)c1`, for which the inhibition in assay [1] is 1.6%; in assay [2] it was 6.3%. For the same compound, the IC50 worked out at 1.48 µM with HCT-15, 0.72 µM in the assay on DU-145, 2.01 µM in the assay with T47D and 2.03 µM with HeLa.

Turning to `Oc1ccccc1-c1cc(-c2ccccc2F)nc2c1Cc1c(O)cccc1-2`, the inhibition in assay [1] came out at 0%; in assay [2], 24.1%. Moreover, the IC50 came to 3.39 µM in the assay on HCT-15, 2.71 µM in the assay on DU-145, 1.77 µM in the assay on T47D and 4.18 µM with HeLa.

Take `Oc1cccc(-c2cc(-c3ccc(C(F)(F)F)cc3)nc3c2Cc2c(O)cccc2-3)c1`: the inhibition in assay [1] came to 0.7%; in assay [2], 10.9%. Moreover, the IC50 in the assay with HCT-15 was determined as 6.98 µM; in the assay on DU-145, 5.01 µM; with T47D, 6.15 µM; with HeLa, 6.3 µM.

In the case of `Oc1cccc(-c2cc(-c3ccccc3)c3c(n2)-c2c(O)cccc2C3)c1`, the inhibition in assay [1] and in assay [2] was 0% each time. Moreover, the IC50 with HCT-15 was over 50 µM; in the assay with DU-145 it was 0.43 µM; in the assay with T47D it was 3.68 µM; with HeLa, over 50 µM.

Turning to `Oc1ccc(-c2cc(-c3ccc(F)cc3)nc3c2Cc2cc(O)ccc2-3)cc1`, the inhibition was 8% in assay [1] and 17.1% in assay [2]. Besides, the half-maximal inhibitory concentration (IC50) with HCT-15 is 4.4 µM; in the assay on DU-145, 1.59 µM; in the assay with T47D, 1.85 µM; in the assay on HeLa it was 3.84 µM.

For the compound `Oc1ccc(-c2cc(-c3ccccc3)c3c(n2)-c2cccc(O)c2C3)cc1`, the inhibition turned out to be 5.3% in assay [1] and 4.4% in assay [2]. The IC50 with HCT-15 is 1.02 µM; in the assay on DU-145 it was 0.37 µM; in the assay on T47D, 6.23 µM; in the assay with HeLa, 5.74 µM.

On to `Oc1ccc(-c2cc(-c3cccc(C(F)(F)F)c3)nc3c2Cc2cccc(O)c2-3)cc1`, for which the figures for the inhibition in assay [1] and in assay [2] were 2.3% and 12.9%, respectively. Further, the IC50 in the assay on HCT-15 turned out to be 4.77 µM; with DU-145, 44.1 µM; in the assay with T47D, 9.57 µM; with HeLa, 16.8 µM.

On to `Oc1ccc(-c2cc(-c3ccccc3F)nc3c2Cc2ccc(O)cc2-3)cc1`, for which the inhibition is 3.3% in assay [1] and 6.4% in assay [2]. Further, the IC50 with HCT-15 is over 50 µM; with DU-145, 14.1 µM; in the assay with T47D it was 29.2 µM; in the assay with HeLa, over 50 µM.

For the compound `Oc1ccc2c(c1)-c1nc(-c3ccc(F)cc3)cc(-c3ccccc3O)c1C2`, the inhibition in assay [1] worked out at 0%; in assay [2], 23.3%. The half-maximal inhibitory concentration (IC50) in the assay with HCT-15 worked out at 3.13 µM; in the assay with DU-145 it was 3.49 µM; with T47D, 0.19 µM; in the assay on HeLa, 4.38 µM.

`Oc1ccc(-c2cc(-c3ccccc3)nc3c2Cc2cc(O)ccc2-3)cc1`: the values for the inhibition in assay [1] and in assay [2] were 11.1% and 2.5%, respectively. In addition, the IC50 in the assay with HCT-15 is over 50 µM; with DU-145, 2.48 µM; with T47D, 3.55 µM; in the assay with HeLa it was 2.75 µM.

With `Oc1ccccc1-c1cc(-c2cccc(F)c2)nc2c1Cc1cccc(O)c1-2`, the inhibition stood at 0% in assay [1] and 8.4% in assay [2]. Also, the IC50 stood at 5.03 µM in the assay on HCT-15, 9.97 µM with DU-145, 0.74 µM in the assay with T47D and 7.9 µM in the assay with HeLa.

For `Oc1ccccc1-c1cc(-c2ccccc2)c2c(n1)-c1c(O)cccc1C2`, the results for the inhibition in assay [1] and in assay [2] were 1% and 1.2%, respectively. The IC50 in the assay with HCT-15 is over 50 µM; with DU-145, 9.61 µM; with T47D, over 50 µM; in the assay with HeLa it was over 50 µM.

In the case of `Oc1ccc2c(c1)-c1nc(-c3cccc(F)c3)cc(-c3ccccc3O)c1C2`, the inhibition was found to be 0% in assay [1] and 28.3% in assay [2]. For the same compound, the IC50 was 2.9 µM in the assay on HCT-15, 0.86 µM with DU-145, 0.68 µM in the assay with T47D and 4.22 µM in the assay on HeLa.

For the compound `Oc1ccc(-c2cc(-c3cccc(F)c3)nc3c2Cc2cc(O)ccc2-3)cc1`, the values for the inhibition in assay [1] and in assay [2] were 8.7% and 4.5%, respectively. For the same compound, the half-inhibitory concentration (IC50) in the assay with HCT-15 worked out at 3.57 µM; in the assay with DU-145, 1.44 µM; in the assay on T47D it was 1.34 µM; with HeLa, 6.76 µM.

Consider `Oc1ccc(-c2cc(-c3ccccc3)nc3c2Cc2ccc(O)cc2-3)cc1`, for which the results for the inhibition in assay [1] and in assay [2] were 6% and 2.4%, respectively. Moreover, the IC50 was over 50 µM in the assay with HCT-15, 1.38 µM in the assay with DU-145, 2.99 µM in the assay with T47D and over 50 µM in the assay with HeLa.

Consider `Oc1ccc2c(c1)Cc1c(-c3ccccc3)cc(-c3ccccc3O)nc1-2`, for which the inhibition was determined as 2% in assay [1] and 19% in assay [2]. In addition, the IC50 was over 50 µM in the assay with HCT-15, 1.62 µM in the assay with DU-145, over 50 µM in the assay with T47D and over 50 µM in the assay with HeLa.

With `Oc1ccc(-c2cc(-c3ccccc3)nc3c2Cc2c(O)cccc2-3)cc1`, the inhibition in assay [1] was 4.4%; in assay [2], 1.5%. Further, the IC50 in the assay on HCT-15 amounted to 2.78 µM; in the assay with DU-145, 1.28 µM; with T47D it was 2.89 µM; in the assay with HeLa, 1.94 µM.

Take `Oc1ccc(-c2cc(-c3ccccc3C(F)(F)F)nc3c2Cc2cccc(O)c2-3)cc1`: the inhibition in assay [1] is 3%; in assay [2], 2.9%. The IC50 with HCT-15 is over 50 µM; in the assay with DU-145, over 50 µM; in the assay with T47D it was 1.44 µM; in the assay with HeLa, over 50 µM.

On to `Oc1ccccc1-c1cc(-c2ccccc2)c2c(n1)-c1cccc(O)c1C2`, for which the inhibition in assay [1] was 6.6%; in assay [2], 1.1%. The IC50 with HCT-15 was over 50 µM; in the assay with DU-145 it was 2.49 µM; with T47D, 6.43 µM; in the assay with HeLa it was 1.83 µM.

`Oc1ccc(-c2cc(-c3ccc(Cl)cc3)nc3c2Cc2cccc(O)c2-3)cc1`: the inhibition in assay [1] stood at 0.2%; in assay [2], 26.2%. Moreover, the 50% inhibitory concentration (IC50) in the assay on HCT-15 was over 50 µM; with DU-145 it was 2.8 µM; with T47D, over 50 µM; in the assay with HeLa, over 50 µM.

Turning to `Oc1ccc2c(c1)-c1nc(-c3ccccc3F)cc(-c3ccccc3O)c1C2`, the values for the inhibition in assay [1] and in assay [2] were 0% and 27%, respectively. Also, the IC50 in the assay on HCT-15 amounted to 2.98 µM; with DU-145, 4.07 µM; in the assay on T47D it was 0.61 µM; with HeLa it was 4.36 µM.

For the compound `Oc1ccc(-c2cc(-c3ccccc3F)nc3c2Cc2cc(O)ccc2-3)cc1`, the results for the inhibition in assay [1] and in assay [2] were 12.2% and 10.6%, respectively. The IC50 in the assay with HCT-15 came out at 3.01 µM; with DU-145, 1.26 µM; in the assay with T47D, 1.39 µM; in the assay on HeLa, 4.84 µM.
